How the values were obtained:
[1] = test system: Fgfr4 mediated downstream signalling (p-Erk); test: FGF19 induced MAPK activation (P-ERK immunoblot) in breast cancer cell lines; assay type: cell-based; details: BT-474, MDA-MB-361 and ZR75-1 starved 48 h; compared to not stimulated control cells
Method: Secondary HRP-conjugated antibodies were goat anti-mouse (Sigma, Taufkirchen, Germany) and goat anti-rabbit (Biorad, Munich, Germany).
Cell cultures were washed with PBS and incubated at 4° C. with lysis buffer (50 mM HEPES/NaOH, pH 7.5, 150 mM NaCl, 1 mM EDTA, 10% glycerol and 1% Triton X-100) supplemented with phosphatase and protease inhibitors (10 mM sodium pyrophosphate, 1 mM PMSF, 2 mM sodium orthovanadate, 10 μg/ml aprotinin). Cellular debris was removed by centrifugation. Protein concentration measurements were performed using the Micro-BCA-Protein-Assay Kit from Pierce (Bonn, Germany). For immunoprecipitations, whole-cell lysates were combined with antibody and 30 μl of protein A- or G-sepharose slurry (GE Healthcare). The samples were incubated for 3 h on a rotation wheel at 4° C. The precipitates were washed three times with HNTG buffer (20 mM HEPES/NaOH, pH 7.5, 150 mM NaCl, 10% glycerol, 0.1% Triton X-100 and 10 mM sodium pyrophosphate) suspended in 3×SDS sample buffer, boiled for 3 min and subjected to SDS-PAGE. For Western blot analysis, proteins were transferred to nitrocellulose membranes and incubated with the appropriate antibodies. Signals were developed via an enhanced chemiluminescence detection system (ECL, Perkin Elmer, Wellesley, Mass.). Before reprobing, membranes were stripped with 65 mM Tris/HCl pH 6.8 buffer containing 2% SDS at 50° C. for 1 h.

Bcl-xl expression = details: MCF7-FGFR4 cells, 10 μM U0126 for 6 hours and 12 hours
Method: RNA was isolated using the RNeasy Mini Kit (Qiagen, Hilden, Germany) and reversely transcribed into cDNA using the AMV reverse transcriptase (Roche, Mannheim, Germany) and OligodT-Primer (Gibco, Germany). The RNA and cDNA concentration was measured using the NanoDrop ND1000 (PeqLab, Erlangen, Germany) system. […] PCR products were subjected to electrophoresis on a 2% agarose gel and DNA was visualized by ethidium bromide staining.

FGF19: specific ligand of Fgfr4, FGF-Ligands purchased from TEBU
p-Erk-levels on FGF19 stimulation [1]: increased

N#CC(=C(/N)Sc1ccccc1N)/C(C#N)=C(\N)Sc1ccccc1N [U0126]
Bcl-xl expression (semiquantitative PCR) (Bcl-xl expression): abolished

Reference: patent US20100143386A1, “FGFR4 Promotes Cancer Cell Resistance in Response to Chemotherapeutic Drugs” (Max-Planck-Gesellschaft zur foerderung der Wissenschaften, …, priority 2006, published 2010)
